1 compound from article PMC11481179, “Development and Application of Reversible and Irreversible Covalent Probes for Human and Mouse Cathepsin‐K Activity Detection, Revealing Nuclear Activity” (Advanced Science, 2024) can be followed below.

In this assay the target is T1, active CTSK in intact cells (MG-63, U-2 OS, U-87 MG) (Homo sapiens, UniProt P43235).
T1 construct: ability to label endogenous CTSK activity in intact cells; endogenous in cells; host or cells: MG-63, U-2 OS, U-87 MG
T1 sequence (P43235 115-329): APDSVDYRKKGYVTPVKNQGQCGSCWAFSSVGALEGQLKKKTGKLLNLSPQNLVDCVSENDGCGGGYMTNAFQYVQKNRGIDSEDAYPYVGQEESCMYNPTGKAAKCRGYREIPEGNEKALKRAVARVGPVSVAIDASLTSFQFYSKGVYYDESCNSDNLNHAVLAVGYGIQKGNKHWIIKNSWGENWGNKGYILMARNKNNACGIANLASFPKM
Briefly: Labeling of endogenous CTSK in intact cells, fluorescent SDS-PAGE. The note with it: probe 5 µM, fluorescent SDS PAGE method. It counts as cell-based. The protocol: Figure 2 Labeling of endogenous CTSK in intact cells. a) U2‐OS cells were treated with DMSO or 5 µM of the indicated inhibitors in culture medium, for 2 h, then with indicated ABPs [5 µM] in a culture medium for indicated times, followed by cell lysis, SDS‐PAGE separation, and fluorescent scanning of the gel at 635/670 nm. An immunoblot of CTSK of the same gel is presented below. b) Intact MG63 cells were treated with GD32 5 µM in the culture media for indicated times, cell lysates were analyzed as in a. CTSK immunoblot is presented, pro and mature CTSK are indicated by arrows. c) MG63 cells and d) U87MG cells were treated with DMSO, or 5 µM of indicated inhibitors in culture medium for 2 h, followed by incubation with 5 µM of indicated probes for 5 h (GD32 and GD42) and 2 h (GB123), cell lysates were analyzed by fluorescent SDS PAGE as in a. […] Cells were incubated with 5 µM GD32 for 24 h in growth media at indicated pHs, prior to the cell lysis, cell lysates were analysed as in a. […] Input (I), immunoprecipitation (IP), and output (O) were separated by a 14% SDS‐PAGE and scanned for fluorescence. […] We further corroborated the band identity by western blot with an anti‐CTSK antibody, where the mature active CTSK is detected at the same location on the gel (Figure 2). page 6: MG63 Ex/Em 635/670 nm b) Figure S5. […] Cell lysates were analyzed as described above. […]

Take `CC(C)C[C@H](N[C@@H](c1ccc(-c2ccc(S(=O)(=O)CCNC(=O)CCCCC[N+]3=C(/C=C/C=C/C=C4/N(C)c5ccc(S(=O)(=O)O)cc5C4(C)C)C(C)(C)c4cc(S(=O)(=O)O)ccc43)cc2)cc1)C(F)(F)F)C(=O)NC1(C#N)CC1` [GD37]: the “detection of binding to active CTSK” value is given as “could not be detected”.
